According to patent US20240201204A1, “Biomarker and Druggable Target of Neurodegeneration” (University Hospitals Cleveland Medical Center, priority 2020, published 2024):

Tests used:
Assay type in all cases: in vivo, mouse
[1] = test system: p300/CBP; test: p300/CBP activity after TBI (acetylation of p300/CBP, H2AK5, H3K18; western blot); settings: vs. TBI+Vehicle
Method: (§1) Drug preparation and administration: CGP3466B (Sigma-Aldrich, SML1941) was dissolved in DMSO and then diluted in sterile saline. The final working stock was 0.0014 mg/ml for administering the 0.014 mg/kg dose. Intraperitoneal administration of CGP3466B was initiated 15 min or 24 h after injury, and tissues were harvested 6 h (for SNO-GAPDH, SNO-SIRT1 measurement) or 2 weeks (for ac-tau measurement) later, respectively. Salsalate (AdipoGen, AG-CR1-3574) was dissolved in DMSO and then diluted in sterile PBS. The final working stocks were as follows: 2.5 mg/ml (25 mg/kg dose), 1 mg/ml (10 mg/kg dose), 0.5 mg/ml (5 mg/kg dose). Daily intraperitoneal administration of salsalate was initiated 24 hr after injury and continued throughout behavioral testing. P7C3-A20 and FK866 (Sigma-Aldrich, F8557) were first dissolved in 1 vol of DMSO, followed by addition of 4 vol of Kolliphor and vigorously vortexing. The solution was then diluted with 30 vol of filtered 5% dextrose (pH 7.0). EX527 (Selleckchem, S1541) was dissolved in 1% DMSO+30% polyethylene glycol+1% Tween 80. Daily intraperitoneal administration of P7C3-A20 was initiated 24 hr after poly-traumatic brain injury. EX527 (10 mg/kg) was administer once a day and FK866 was treated twice per day, with the first injection given at the same time as P7C3-A20 (20 mg/kg) and the second injection given 6 h later (LoCoco et al., 2017 eLife). Diflunisal was first dissolved in 1 vol of DMSO, followed by addition of 2 vol of Kolliphor and vigorously vortexing. The solution was then diluted with 7 vol of saline to the appropriate concentration for administration at 25, 50, or 100 mg/kg.
(§2) The pressure in the side not containing the mouse was increased to cause membrane rupture at 20 pounds per square inch (PSI), which generates an about 1-2 ms jet airflow of 137.9+/−13.79 kPa that passes through the animal's head. The head remains untethered in a padded holder, while the body is fully shielded by a metal tube. The jet of air produced upon membrane rupture provides a concussive injury, which is followed by acceleration/deceleration of the head and then exposure to the ensuing blast wave within an enclosed space.
Western blotting: Western blotting was performed as described previously (Min et al., 2010), with the 9AB antibody against acetylated-tau generated in the Gan laboratory. […] Lysates were centrifuged at 170,000 g at 4° C. for 15 min and at 18,000 g at 4° C. for 10 min, after which protein concentrations of supernatants were measured by bicinchoninic acid assay (Thermo Scientific, A53225). […]

[2] = test system: axon initial segment; test: Axon initial segment (AIS) degradation after TBI (AnkG, βIV-spectrin staining); settings: vs. TBI+Vehicle
Method: as §1, §2
Immunohistochemistry: Mice were transcardially perfused with cold 1× phosphate-buffered saline (PBS) followed by 4% paraformaldehyde in PBS at pH 7.4 under anesthesia. Brains were carefully removed and post-fixed in 4% paraformaldehyde overnight at 4° C. Brains were immersed in 30% sucrose in PBS for 72 h at 4° C. and then rapidly frozen in 2-methylbutane pre-cooled to −20° C. with dry ice. Brains were cut coronally (40 μm) and sections were stored in cryoprotective solution (150 mM Ethylene glycol, 100 mM glycerol, 250 mM PBS) at −20° C. For tau and NeuN staining, sections were washed three times with PBS for 5 min and then treated with 0.2% Triton X-100 in PBS for 15 min. Sections were washed with PBS and then incubated with 100 mM glycine for 15 min. After blocking sections using blocking buffer (1% bovine serum albumin, 10% normal goat serum, 0.3 M glycine) for 30 min, primary antibodies (Tau, Invitrogen, #13-6400, 1:100, NeuN, EMD Millipore Cor., #MABN-140, 1:500) were incubated overnight at 4° C. Sections were washed three times with PBS (5 min each) and then incubated with Alexa Fluor 488 goat anti-mouse (Invitrogen, A11001, 1:200) or Alexa Fluor 568 goat anti-rabbit (Life technologies, A11011, 1:200) at room temperature for 2 h. […]

[3] = test system: tau; test: Tau mislocalization after TBI (tau and NeuN immunohistochemistry); settings: vs. TBI+Vehicle
Method: as §1, §2
Immunohistochemistry: Mice were transcardially perfused with cold 1× phosphate-buffered saline (PBS) followed by 4% paraformaldehyde in PBS at pH 7.4 under anesthesia. Brains were carefully removed and post-fixed in 4% paraformaldehyde overnight at 4° C. Brains were immersed in 30% sucrose in PBS for 72 h at 4° C. and then rapidly frozen in 2-methylbutane pre-cooled to −20° C. with dry ice. Brains were cut coronally (40 μm) and sections were stored in cryoprotective solution (150 mM Ethylene glycol, 100 mM glycerol, 250 mM PBS) at −20° C. […]

[4] = test system: degenerating axons; test: Axon degeneration after TBI (silver staining); settings: vs. TBI+Vehicle
Method: as §1, with “Diflunisal was first dissolved in 1 vol of DMSO, followed by addition of 2 vol of Kolliphor and vigorously vortexing. The solution was then diluted with 7 vol of saline to the appropriate concentration for administration at 25, 50, or 100 mg/kg.” left out

[5] = test system: C57BL/6J mice; test: Barnes maze task of learning and memory after TBI
Method: as §1, §2
Barnes maze: The Barnes maze apparatus consisted of a gray circular platform (91 cm in diameter and 90 cm in height), with 20 equally spaced holes 5 cm in diameter along the perimeter (Stoelting Co.). One of these holes contained a recessed escape chamber located under the platform. Four different and equally-spaced visual cues with different shapes and colors were hung on a black circular curtain surrounding the maze. […] Total and primary latency were measured during training days, and latency to first nose pokes in escape hole and time spent in target quadrant were measured for memory test on the probe trial day. […]

[6] = low-dose salsalate daily IP from 24 h after TBI

| SMILES | ac-p300/CBP in cerebral cortex ([1]; CGP3466B 0.014 mg/kg, after TBI) | post-TBI AIS degradation, cerebral cortex ([2]; CGP3466B 0.014 mg/kg IP daily) | post-TBI AIS degradation, hippocampus ([2]; CGP3466B 0.014 mg/kg IP daily) | post-TBI tau mislocalization ([3]; CGP3466B 0.014 mg/kg IP daily, initiated 24 hours after TBI) | post-TBI axon degeneration (silver staining) ([4]; CGP3466B 0.014 mg/kg IP daily) | post-TBI cognition, learning and memory phases of Barnes maze ([5]; CGP3466B 0.014 mg/kg IP daily, initiated 24 hours after injury, vs. TBI+Vehicle) | ac-H2AK5 levels in cerebral cortex and hippocampus ([1]; low-dose salsalate after TBI) | ac-H3K18 levels in cerebral cortex and hippocampus ([1]; low-dose salsalate after TBI) | acetylation of p300/CBP ([1]; low-dose salsalate after TBI) | post-TBI AIS degradation [2, 6] | post-TBI tau mislocalization [3, 6] | post-TBI axonal degeneration [4, 6] | post-TBI cognitive impairment (learning and memory in the Barnes maze) ([5]; low-dose salsalate daily IP from 24 h after TBI, vs. TBI+Vehicle) | average speed in behavioral testing ([5]; salsalate daily IP from 24 h after TBI) | learning, primary latency during training period of the Barnes maze ([5]; salsalate daily IP from 24 h after TBI, vs. TBI+Vehicle) |
| --- | --- | --- | --- | --- | --- | --- | --- | --- | --- | --- | --- | --- | --- | --- | --- |
| C#CCN(C)CC1=Cc2ccccc2Oc2ccccc21.O=C(O)/C=C\C(=O)O [CGP3466B] | reduces ac-p300/CBP in cerebral cortex after TBI | protects mice from post-TBI AIS degradation in the cerebral cortex | protects mice from post-TBI AIS degradation in the hippocampus | protects mice from post-TBI tau mislocalization | protects mice from post-TBI axon degeneration | protects mice from post-TBI impaired cognition in both learning and memory phases |  |  |  |  |  |  |  |  |  |
| O=C(Oc1ccccc1C(=O)O)c1ccccc1O [salsalate] |  |  |  |  |  |  | significantly reduced levels of ac-H2AK5 and ac-H3K18 | significantly reduced levels of ac-H2AK5 and ac-H3K18 | acetylation of p300/CBP was also significantly reduced | protects mice from post-TBI AIS degradation | protects mice from post-TBI tau mislocalization | protects mice from post-TBI axonal degeneration | protects mice from post-TBI impairments | Average speed was not affected | improved learning as measured by primary latency |
